Laboratory results reported in patent US20240027453A1, “METHOD FOR DETECTION AND QUANTITATIVE MONITORING OF INFECTIONS WITH HERPESVIRUSES” (The Trustees of Princeton University, priority 2020, published 2024).
Read-outs that look alike come from different tables or passages of the source.

System: HCMV
Format: cell-based
Conditions: for UL119/UL118 (P16739) protein, numerical value of heatmap FIG. 6C / UL128 (P16837) protein, numerical value of heatmap FIG. 6C / US8 (P09730) protein, numerical value of heatmap FIG. 6C / US9 (P09729) protein, numerical value of heatmap FIG. 6C / US12 (P09721) protein, numerical value of heatmap FIG. 6C / US13 (P09720) protein, numerical value of heatmap FIG. 6C / US14 (P09719) protein, numerical value of heatmap FIG. 6C / US18 (P69334) protein, numerical value of heatmap FIG. 6C / US22 (P09722) protein, numerical value of heatmap FIG. 6C / US23 (P09701) protein, numerical value of heatmap FIG. 6C / US24 (P09700) protein, numerical value of heatmap FIG. 6C / gB (P06473) protein, numerical value of heatmap FIG. 6C / sp|P09710|IR01_HCMVA (P09710) protein, numerical value of heatmap FIG. 6C / CVC2 (P16726) protein, numerical value of heatmap FIG. 6C / DBP (P17147) protein, numerical value of heatmap FIG. 6C / HELI (P16736) protein, numerical value of heatmap FIG. 6C / NEC1 (P16794) protein, numerical value of heatmap FIG. 6C / NEC2 (P16791) protein, numerical value of heatmap FIG. 6C / RIR1 (P16782) protein, numerical value of heatmap FIG. 6C / TRM1 (P16724) protein, numerical value of heatmap FIG. 6C / UL4 (P17146) protein, numerical value of heatmap FIG. 6C / UL26 (P16762) protein, numerical value of heatmap FIG. 6C / UL32 (P08318) protein, numerical value of heatmap FIG. 6C / UL34 (P16812) protein, numerical value of heatmap FIG. 6C / UL35 (P16766) protein, numerical value of heatmap FIG. 6C / UL38 (P16779) protein, numerical value of heatmap FIG. 6C / UL44 (P16790) protein, numerical value of heatmap FIG. 6C / UL48 (P16785) protein, numerical value of heatmap FIG. 6C / UL54 (P08546) protein, numerical value of heatmap FIG. 6C / UL71 (P16823) protein, numerical value of heatmap FIG. 6C / UL78 (P16751) protein, numerical value of heatmap FIG. 6C / UL84 (P16727) protein, numerical value of heatmap FIG. 6C / UL95 (P16801) protein, numerical value of heatmap FIG. 6C / UL96 (P16787) protein, numerical value of heatmap FIG. 6C / UL97 (P16788) protein, numerical value of heatmap FIG. 6C / UL98 (P16789) protein, numerical value of heatmap FIG. 6C / UL102 (P16827) protein, numerical value of heatmap FIG. 6C / UL104 (P16735) protein, numerical value of heatmap FIG. 6C / UL112/UL113 (P17151) protein, numerical value of heatmap FIG. 6C / UL114 (P16769) protein, numerical value of heatmap FIG. 6C: DE
In short: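 MRC5 human fibroblasts treated with compound or DMSO/PBS 12 h before infection with HSV-1 17+ or HCMV AD169 at MOI 3, drug re-added every 24 h. Viral proteins quantified by targeted PRM LC-MS/MS of tryptic peptides, summed 3-4 transitions, normalized to host loading-control peptides and scaled to each peptide's average across runs.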

SMILES: Nc1ccn(C[C@@H](CO)OCP(=O)(O)O)c(=O)n1 [CDV, cidofovir]
- UL119/UL118 (P16739) protein, numerical value of heatmap FIG. 6C (timepoint 72): 0.9178
- UL128 (P16837) protein, numerical value of heatmap FIG. 6C (timepoint 72): 0.3157
- US8 (P09730) protein, numerical value of heatmap FIG. 6C (timepoint 72): 1.064
- US9 (P09729) protein, numerical value of heatmap FIG. 6C (timepoint 72): 1.073
- US12 (P09721) protein, numerical value of heatmap FIG. 6C (timepoint 72): 1.061
- US13 (P09720) protein, numerical value of heatmap FIG. 6C (timepoint 72): 1.062
- US14 (P09719) protein, numerical value of heatmap FIG. 6C (timepoint 72): 0.8113
- US18 (P69334) protein, numerical value of heatmap FIG. 6C (timepoint 72): 1.076
- US22 (P09722) protein, numerical value of heatmap FIG. 6C (timepoint 72): 0.7585
- US23 (P09701) protein, numerical value of heatmap FIG. 6C (timepoint 72): 0.7114
- US24 (P09700) protein, numerical value of heatmap FIG. 6C (timepoint 72): 0.6653
- gB (P06473) protein, numerical value of heatmap FIG. 6C (timepoint 72): 0.7243
- sp|P09710|IR01_HCMVA (P09710) protein, numerical value of heatmap FIG. 6C (timepoint 72): 0.4528
- CVC2 (P16726) protein, numerical value of heatmap FIG. 6C (timepoint 96): 0.8812
- DBP (P17147) protein, numerical value of heatmap FIG. 6C (timepoint 96): 1.215
- HELI (P16736) protein, numerical value of heatmap FIG. 6C (timepoint 96): 0.6134
- NEC1 (P16794) protein, numerical value of heatmap FIG. 6C (timepoint 96): 0.6641
- NEC2 (P16791) protein, numerical value of heatmap FIG. 6C (timepoint 96): 0.9731
- RIR1 (P16782) protein, numerical value of heatmap FIG. 6C (timepoint 96): 0.8478
- TRM1 (P16724) protein, numerical value of heatmap FIG. 6C (timepoint 96): 0.8347
- UL4 (P17146) protein, numerical value of heatmap FIG. 6C (timepoint 96): 1.514
- UL26 (P16762) protein, numerical value of heatmap FIG. 6C (timepoint 96): 1.007
- UL32 (P08318) protein, numerical value of heatmap FIG. 6C (timepoint 96): 0.8551
- UL34 (P16812) protein, numerical value of heatmap FIG. 6C (timepoint 96): 0.6849
- UL35 (P16766) protein, numerical value of heatmap FIG. 6C (timepoint 96): 0.6647
- UL38 (P16779) protein, numerical value of heatmap FIG. 6C (timepoint 96): 0.8749
- UL44 (P16790) protein, numerical value of heatmap FIG. 6C (timepoint 96): 0.9654
- UL48 (P16785) protein, numerical value of heatmap FIG. 6C (timepoint 96): 0.7541
- UL54 (P08546) protein, numerical value of heatmap FIG. 6C (timepoint 96): 1.256
- UL71 (P16823) protein, numerical value of heatmap FIG. 6C (timepoint 96): 1.299
- UL78 (P16751) protein, numerical value of heatmap FIG. 6C (timepoint 96): 0.7903
- UL84 (P16727) protein, numerical value of heatmap FIG. 6C (timepoint 96): 0.7779
- UL95 (P16801) protein, numerical value of heatmap FIG. 6C (timepoint 96): 0.5596
- UL96 (P16787) protein, numerical value of heatmap FIG. 6C (timepoint 96): 0.7142
- UL97 (P16788) protein, numerical value of heatmap FIG. 6C (timepoint 96): 0.8338
- UL98 (P16789) protein, numerical value of heatmap FIG. 6C (timepoint 96): 1.012
- UL102 (P16827) protein, numerical value of heatmap FIG. 6C (timepoint 96): 0.9332
- UL104 (P16735) protein, numerical value of heatmap FIG. 6C (timepoint 96): 0.5729
- UL112/UL113 (P17151) protein, numerical value of heatmap FIG. 6C (timepoint 96): 0.7439
- UL114 (P16769) protein, numerical value of heatmap FIG. 6C (timepoint 96): 0.9743
- UL119/UL118 (P16739) protein, numerical value of heatmap FIG. 6C (timepoint 96): 0.7206
- UL128 (P16837) protein, numerical value of heatmap FIG. 6C (timepoint 96): 0.8111
- US8 (P09730) protein, numerical value of heatmap FIG. 6C (timepoint 96): 0.7796
- US9 (P09729) protein, numerical value of heatmap FIG. 6C (timepoint 96): 0.9079
- US12 (P09721) protein, numerical value of heatmap FIG. 6C (timepoint 96): 0.6688
- US13 (P09720) protein, numerical value of heatmap FIG. 6C (timepoint 96): 0.8741
- US14 (P09719) protein, numerical value of heatmap FIG. 6C (timepoint 96): 0.6845
- US18 (P69334) protein, numerical value of heatmap FIG. 6C (timepoint 96): 1.116
- US22 (P09722) protein, numerical value of heatmap FIG. 6C (timepoint 96): 1.105
- US23 (P09701) protein, numerical value of heatmap FIG. 6C (timepoint 96): 0.7852
- US24 (P09700) protein, numerical value of heatmap FIG. 6C (timepoint 96): 0.7832
- gB (P06473) protein, numerical value of heatmap FIG. 6C (timepoint 96): 0.9959
- sp|P09710|IR01_HCMVA (P09710) protein, numerical value of heatmap FIG. 6C (timepoint 96): 0.4967
- CVC2 (P16726) protein, numerical value of heatmap FIG. 6C (timepoint 120): 0.9588
- DBP (P17147) protein, numerical value of heatmap FIG. 6C (timepoint 120): 2.035
- HELI (P16736) protein, numerical value of heatmap FIG. 6C (timepoint 120): 1.128
- NEC1 (P16794) protein, numerical value of heatmap FIG. 6C (timepoint 120): 1.121
- NEC2 (P16791) protein, numerical value of heatmap FIG. 6C (timepoint 120): 1.797
- RIR1 (P16782) protein, numerical value of heatmap FIG. 6C (timepoint 120): 1.313
- TRM1 (P16724) protein, numerical value of heatmap FIG. 6C (timepoint 120): 1.312
- UL4 (P17146) protein, numerical value of heatmap FIG. 6C (timepoint 120): 0.635
- UL26 (P16762) protein, numerical value of heatmap FIG. 6C (timepoint 120): 1.564
- UL32 (P08318) protein, numerical value of heatmap FIG. 6C (timepoint 120): 1.478
- UL34 (P16812) protein, numerical value of heatmap FIG. 6C (timepoint 120): 0.9444
- UL35 (P16766) protein, numerical value of heatmap FIG. 6C (timepoint 120): 1.133
- UL38 (P16779) protein, numerical value of heatmap FIG. 6C (timepoint 120): 1.272
- UL44 (P16790) protein, numerical value of heatmap FIG. 6C (timepoint 120): 1.235
- UL48 (P16785) protein, numerical value of heatmap FIG. 6C (timepoint 120): 1.1
- UL54 (P08546) protein, numerical value of heatmap FIG. 6C (timepoint 120): 1.415
- UL71 (P16823) protein, numerical value of heatmap FIG. 6C (timepoint 120): 1.229
- UL78 (P16751) protein, numerical value of heatmap FIG. 6C (timepoint 120): 0.9208
- UL84 (P16727) protein, numerical value of heatmap FIG. 6C (timepoint 120): 1.217
- UL95 (P16801) protein, numerical value of heatmap FIG. 6C (timepoint 120): 0.7275
- UL96 (P16787) protein, numerical value of heatmap FIG. 6C (timepoint 120): 1.265
- UL97 (P16788) protein, numerical value of heatmap FIG. 6C (timepoint 120): 1.137
- UL98 (P16789) protein, numerical value of heatmap FIG. 6C (timepoint 120): 1.14
- UL102 (P16827) protein, numerical value of heatmap FIG. 6C (timepoint 120): 1.353
- UL104 (P16735) protein, numerical value of heatmap FIG. 6C (timepoint 120): 0.8938
- UL112/UL113 (P17151) protein, numerical value of heatmap FIG. 6C (timepoint 120): 0.8795
- UL114 (P16769) protein, numerical value of heatmap FIG. 6C (timepoint 120): 1.541
- UL119/UL118 (P16739) protein, numerical value of heatmap FIG. 6C (timepoint 120): 0.8678
- UL128 (P16837) protein, numerical value of heatmap FIG. 6C (timepoint 120): 1.193
- US8 (P09730) protein, numerical value of heatmap FIG. 6C (timepoint 120): 1.14
- US9 (P09729) protein, numerical value of heatmap FIG. 6C (timepoint 120): 1.342
- US12 (P09721) protein, numerical value of heatmap FIG. 6C (timepoint 120): 0.661
- US13 (P09720) protein, numerical value of heatmap FIG. 6C (timepoint 120): 0.7786
- US14 (P09719) protein, numerical value of heatmap FIG. 6C (timepoint 120): 0.6977
- US18 (P69334) protein, numerical value of heatmap FIG. 6C (timepoint 120): 0.679
- US22 (P09722) protein, numerical value of heatmap FIG. 6C (timepoint 120): 1.167
- US23 (P09701) protein, numerical value of heatmap FIG. 6C (timepoint 120): 1.024
- US24 (P09700) protein, numerical value of heatmap FIG. 6C (timepoint 120): 1.043
- gB (P06473) protein, numerical value of heatmap FIG. 6C (timepoint 120): 1.203
- sp|P09710|IR01_HCMVA (P09710) protein, numerical value of heatmap FIG. 6C (timepoint 120): 0.7849
- IRS1 (P09715) protein, numerical value of heatmap FIG. 6C (IE, timepoint 24): 0.2
- TRS1 (P09695) protein, numerical value of heatmap FIG. 6C (IE, timepoint 24): 0.1103
- UL13 (P16755) protein, numerical value of heatmap FIG. 6C (IE, timepoint 24): 0.5131
- UL36 (P16767) protein, numerical value of heatmap FIG. 6C (IE, timepoint 24): 0.9885
- UL37 (P16778) protein, numerical value of heatmap FIG. 6C (IE, timepoint 24): 0.5466
- UL122 (P19893) protein, numerical value of heatmap FIG. 6C (IE, timepoint 24): 0.05364
- UL123 (P13202) protein, numerical value of heatmap FIG. 6C (IE, timepoint 24): 0.7324
- IRS1 (P09715) protein, numerical value of heatmap FIG. 6C (IE, timepoint 48): 0.5408
- TRS1 (P09695) protein, numerical value of heatmap FIG. 6C (IE, timepoint 48): 0.403
- UL13 (P16755) protein, numerical value of heatmap FIG. 6C (IE, timepoint 48): 0.7812
